Non-standard residues stand in square brackets, D forms with d. Residues, ends and D or L forms follow the SMILES beside them. *: point of attachment. Biotin = O=C1N[C@H]2[C@H](CS[C@H]2CCCCC(=O)*)N1; Benzoyl(4-SO2F) = O=C(c1ccc(S(=O)(=O)F)cc1)*; pY = N[C@@H](Cc1ccc(OP(=O)(O)O)cc1)C(=O)O; Dap = NC[C@H](N)C(=O)O
How the values were obtained:
Nck-SH2 = test: Covalent reaction of p1 with wild-type Nck-SH2; format: binding; settings: cell lysate in vitro and in the cytosol
Protocol: Figure 5 Peptide p1 reacts with Lys 331. (a) MS/MS analysis of the conjugated site between p1 peptide and Nck-SH2 at Lys331. The corresponding mass data are shown in Figure S6 in the Supporting Information. […] Purified recombinant proteins were incubated with peptides in PBS buffer at 37 °C for 1 min (left) or 10 min (right). Molecular weight markers are shown in the middle. Red arrows indicate the covalent peptide–protein complex. […]
(§1) ether and purified by reverse-phase HPLC on a C18 column using acetonitrile/H2O (with 0.1% TFA) gradient on a reversed-phase C18 column, confirmed by MALDI-TOF MS analysis (Bruker, USA).
(§2) Pure peptides were lyophilized.
Crosslinking of Peptides with Nck in vitro
Purified peptides were incubated with the recombinantly expressed Nck protein (10 μM) in PBS buffer at 37 °C. After incubation, 5´ loading buffer was added into the solution and heated at 100 °C for 10 min. […]
The reaction mixture of Nck and p1 were digested with trypsin. Digested peptides were analyzed with an in-line EASY-spray source and nano-LC UltiMate 3000 high-performance liquid chromatography system (Thermo Fisher, USA) interfaced with an Elite mass spectrometer (Thermo Fisher, USA). The eluted peptides were detected by the Elite mass spectrometer, which was operated in data-dependent mode with one full MS scan at R = 60,000 (m/z = 200) mass, followed by MS/MS scans. […]

Nck = target: T1, Nck (Homo sapiens, UniProt P16333); test: Reaction kinetics of p1 crosslinking with Nck (SDS-PAGE); format: binding; settings: 1:1 reaction, p1 5 μM, Nck 5 μM, PBS, 37 °C
T1 construct: GST (followed by PreScission/HRV 3C site) (N, cleaved yes); made in house; host or cells: E. coli BL21(DE3)
Protocol: as §1, §2
Crosslinking of Peptides with Nck in vitro […]
After incubation, 5´ loading buffer was added into the solution and heated at 100 °C for 10 min. These samples were then separated by 12% SDS-PAGE gel, which contained 10% glycerol instead of DI water, followed by staining with Coomassie brilliant blue. Western blot was then performed using the primary antibody specific for Nck or biotin and the secondary antibody.
Mass Spectrometric Analysis
The reaction mixture of Nck and p1 were digested with trypsin. Digested peptides were analyzed with an in-line EASY-spray source and nano-LC UltiMate 3000 high-performance liquid chromatography system (Thermo Fisher, USA) interfaced with an Elite mass spectrometer (Thermo Fisher, USA). The eluted peptides were detected by the Elite mass spectrometer, which was operated in data-dependent mode with one full MS scan at R = 60,000 (m/z = 200) mass, followed by MS/MS scans. Mass spectrometry raw data was searched by Maxquant.
Protein–Peptide Conjugation Reactions and the Binding Assay
The reaction solutions were then thermally denatured in the presence of loading dye to stop the reactions. […]

[1] = system: Nck puncta in Caco-2 cells; test: Nck puncta number in Caco-2 cells overexpressing dsRed-Nck; format: cell-based; settings: L17E 40 μM, p1 1 μM, N = 20 cells
From the text: Figure 6 Peptide p1 inhibits the formation of the Nck/N-WASP condensate in mammalian cells. (a) Schematic illustration showing inhibition of intracellular Nck coacervation by p1. (b) Confocal microscopic images showing the formation of Nck/N-WASP puncta in HeLa cells that overexpress GFP-N-WASP and dsRed-Nck. Scale bar: 10 μm. (c) FRAP analysis showing the Nck/N-WASP condensates in HeLa cells have fluidity properties based on the recovery of the GFP fluorescent signal after photobleaching in a two-photon microscope with excitation at 920 nm. Scale bar: 5 μm. […] L17E, 40 μM; p1, 1 μM. Statistical analyses of puncta number per cell in the control and experiment (L17E/p1). N = 20 cells. […]
concentrations were added to each well, followed by a 90-min incubation at 37 °C. Diluted streptavidin-HRP solution was then added, followed by substrate solution to develop cover at 450 nm, and recorded by a plate reader. […] And then the samples were scanned and measured at 20% IR Laser power with 30 s laser-on time on a Monolith NT.115 instrument (NanoTemper Technologies). The data were analyzed by KD fitting model (KD) or hill fitting model […]
Plasmid extraction was done using a plasmid DNA Maxi kit (Omega Bio-Tek, GA, USA). […] 48 h after transfection, cells were analyzed by fluorescent micrscopes. Cell viability was measured by a CCK8 assay (Thermo Fisher Scientific) according to its manual.

**Q.** With `CC[C@H](C)[C@H](NC(=O)[C@H](Cc1c[nH]cn1)NC(=O)[C@H](CCC(=O)O)NC(=O)[C@H](CCC(=O)O)NC(=O)CCCC[C@@H]1SC[C@@H]2NC(=O)N[C@@H]21)C(=O)N[C@@H](Cc1ccc(OP(=O)(O)O)cc1)C(=O)N[C@@H](CNC(=O)c1ccc(S(=O)(=O)F)cc1)C(=O)N[C@@H](CCC(=O)O)C(=O)N[C@H](C(=O)N[C@@H](C)C(=O)N[C@@H](C)C(=O)N[C@@H](CC(=O)O)C(N)=O)C(C)C` [p1] (Biotin-EEHI[pY][Dap](Benzoyl(4-SO2F))EVAAD-NH2; N-terminus and C-terminus assumed) as the molecule, how does the “reactivity with Nck-SH2” value (Nck-SH2) read?
**A.** high reactivity with Nck-SH2

**Q.** And the “time to reach 50% reaction efficiency” value (Nck)?
**A.** 2 min

**Q.** And the “number of Nck puncta” value [1]?
**A.** reduced the number of Nck puncta

**Q.** And the “decline in Nck puncta numbers” value ([1]; 2 h)?
**A.** 50%
